Measured values published in patent US20230190774A1, “METHOD OF USING SUBSTRATES OF AKR1Bl/AKR1B10 AS ANTI-CANCER DRUGS” (Beijing Normal University Hong Kong Baptist University …, priority 2015, published 2023).
Entries after “also recorded” stand apart in the source; their conditions may differ. Read-outs that look alike come from different tables or passages of the source.

Tests used:
SKOV3 cells = assay: Cytotoxicity assay (cell survival rate, MTT); type: cell-based
Method: (§1) HepG2 cells, SKOV3 cells, HCT116 cells and CaCo2 cells were cultured in DMEM medium, SW480 cells in 1640 medium, and HT29 cells in McCoy’s 5A medium. All cell culture media were supplemented with 10% FBS, 1% PSN, and cells were cultured in a humidified incubator containing 5% CO2 at 37° C. In cytotoxicity assays, cells were seeded at 1 × 10^5 cells/well in 96 well plates with full medium. In GSH assay and Western blot analysis, cells were seeded at 3× 10^6 cells/well in 6 well plates.
(§2) The AKR1Bs substrates’ cytotoxicity was assessed by cell survival rate using MTT assay. After the cells were treated with the substrates for the length of time indicated, MTT was added to a final concentration of 0.5 mg/ml in each well of a 96-well plate, and the plates were incubated at 37° C. for 4 hour. Then DMSO was added to dissolve the formazan product, the amount of which is proportional to the number of live cells. The absorbance of dissolved dye was measured at 540 nm using an automatic microplate reader.

CaCo2 cells = assay: Cytotoxicity assay (cell survival rate, MTT); type: cell-based
Method: as §1, §2

HCT116 cells = assay: Cytotoxicity assay (cell survival rate, MTT); type: cell-based
Method: as §1, §2

HepG2 cells = assay: Cytotoxicity assay (cell survival rate, MTT); type: cell-based
Method: as §1, §2

HepG2 tumor xenograft = conditions: 500 mg/kg, tail vein, daily for 21 days
Method: Six-week-old male BALB/C nude mice were purchased from the Laboratory Animal Unit of the University of Hong Kong. Mice were allowed to acclimate to laboratory conditions for 1 week before cancer cells injection. […] Treatment was initiated when the tumor grew to about 200±100 mm3. […] Mice were randomized and allocated to different groups. They received daily tail vein injection for 3 weeks of one of the following: glyceraldehyde (500 mg/kg body weight); diacetyl (80 mg/kg body weight); or normal saline. Mice were weighted and the sizes of the tumors were measured with calipers every 3 days. Tumor volumes were calculated with the formula: length×width2/2. Animals were humanely killed at the end of the experiment and their tumors were weighed.

AKR1B1 [1] = target: T1, AKR1B1 (Homo sapiens, UniProt P15121); conditions: ND = no detectable activity or less than 32 nmol/min/mg; cited from earlier work
AKR1B10 [2] = target: T2, AKR1B10 (Homo sapiens, UniProt O60218); conditions: ND = no detectable activity or less than 32 nmol/min/mg; cited from earlier work
T2 sequence (O60218 whole entry): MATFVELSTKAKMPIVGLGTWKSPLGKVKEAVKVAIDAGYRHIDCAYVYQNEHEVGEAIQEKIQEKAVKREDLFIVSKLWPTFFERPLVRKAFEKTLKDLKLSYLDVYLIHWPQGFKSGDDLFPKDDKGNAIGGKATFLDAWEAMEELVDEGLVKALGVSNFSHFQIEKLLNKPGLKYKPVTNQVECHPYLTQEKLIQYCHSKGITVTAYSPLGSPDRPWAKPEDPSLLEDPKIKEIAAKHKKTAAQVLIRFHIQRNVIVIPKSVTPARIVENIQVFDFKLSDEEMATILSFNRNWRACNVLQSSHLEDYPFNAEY

AKR1B10 [3] = target: T2, AKR1B10; assay: Enzyme activity assay (NADPH oxidation), purified AKR1B10; type: biochemical; conditions: 20 mM substrate, pH 7.0, 30° C.
Method: (§3) Assay of AKR1B1 and AKR1B10 enzymes activities were conducted in 1 ml of the reaction mixture containing 135 mM sodium phosphate buffer (pH 6.2 for AKR1B1 or pH 7.0 for AKR1B10), 0.2 mM NADPH, 0.3 M ammonium sulfate, 2 µg purified protein and 20 mM of their substrate as indicated. The reaction mix was incubated at 30° C. for 30 minutes (min). Protein-free blank controls were included. The decrease of NADPH was monitored by spectrophotometer at 340 nm. Enzyme activity was calculated as the amount of NADPH oxidized/min/mg of protein (Shen Y et al., Chem Biol Interact. 2011, 191(1-3): 192-198).

[4] = for Death Rate: both, ICR, 14 days
Method: ICR mice (18-22 g) were acquired from the Laboratory Animal Services Centre, The Chinese University of Hong Kong. These animals were housed in an animal room with 12 h of day and dark cycles, and the temperature maintained at around 25° C. There were 4 male and 4 female in each treatment and control group. They were treated with either diacetyl or glyceraldehyde. Diacetyl and glyceraldehyde were dissolved with saline and administered to the mice by intravenous injection with the amount indicated. […] Mortality was recorded daily for the calculation of […] (LD50). All surviving animals were euthanized with diethyl-ether at the end of the experiment.

HT29 cells = assay: Cytotoxicity assay (cell survival rate, MTT); type: cell-based
Method: as §2, with “HepG2 cells, SKOV3 cells, HCT116 cells and CaCo2 cells were cultured in DMEM medium, SW480 cells in 1640 medium, and HT29 cells in McCoy’s 5A medium. […] In cytotoxicity assays, cells were seeded at 1 × 10^5 cells/well in 96 well plates with full medium. In GSH assay and Western blot analysis, cells were seeded at 3× 10^6 cells/well in 6 well plates. The AKR1Bs” for “The AKR1Bs”

SW480 cells = assay: Cytotoxicity assay (cell survival rate, MTT); type: cell-based
Method: as §2, with “HepG2 cells, SKOV3 cells, HCT116 cells and CaCo2 cells were cultured in DMEM medium, SW480 cells in 1640 medium, and HT29 cells in McCoy’s 5A medium. […] In cytotoxicity assays, cells were seeded at 1 × 10^5 cells/well in 96 well plates with full medium. In GSH assay and Western blot analysis, cells were seeded at 3× 10^6 cells/well in 6 well plates. The AKR1Bs” for “The AKR1Bs”

AKR1B1 [5] = target: T1, AKR1B1; assay: Enzyme activity assay (NADPH oxidation), purified AKR1B1; type: biochemical; conditions: 20 mM substrate, pH 6.2, 30° C.
Method: as §3

AKR1B10 [6] = assay: Western blot of AKR1B10 protein level in treated cells; type: cell-based, human
Method: as §1
(§4) Cells were lysed on ice with the protein extraction reagent. Total protein (30 µg) per sample were loaded onto 10% SDS-polyacrylamide gels and separated at 75V, and then electrotransferred to polyvinylidene difluoride (PVDF) membranes overnight at 15 V. Membranes were then soaked in 5% nonfat milk in TBS at room temperature for 1 hour and then incubated with rabbit anti-AKR1B1 antibodies (1:3000) or rabbit anti-AKR1B10 antibodies (1:3000) at room temperature for 2 hours. After being washed, the membranes were incubated in HRP-conjugated goat anti-rabbit or goat anti-mouse IgG secondary antibodies (1:5000) for 1 hour at room temperature, followed by washing and incubation with ECL reagents for 1 min. β-actin monoclonal mouse antibodies (1:5000) was used as reference to assess the relative amounts of proteins loaded per lane.

AKR1B1 [7] = assay: Western blot of AKR1B1 protein level in treated cells; type: cell-based, human
Method: as §1, §4

[8] = substrate alone, 2DG for 72 hours
[9] = BSO (0.3 mM) with 1.25/0.625 mM substrate, NAC with 2.5/1.25 mM substrate
[10] = BSO with 1.25/0.625 mM substrate, NAC with 2.5/1.25 mM substrate
[11] = pretreated 24 hours before addition of 2DG

In the case of `O=CC(O)CO` (racemic) [Glyceraldehyde, glyceraldehyde], the “Cytotoxicity of AKR1Bs substrate (cell survival rate)” value (“Cytotoxicity of AKR1Bs substrate” below) (SKOV3 cells; [8]) is reported as “dose-dependently and preferentially kill; also recorded: dose dependently and preferentially kill; also recorded: most efficient”, the “Cytotoxicity of AKR1Bs substrate” value (CaCo2 cells; [8]) is reported as “dose dependently and preferentially kill” and the “Cytotoxicity of AKR1Bs substrate” value (HCT116 cells; [8]) is reported as “dose dependently and preferentially kill”. The “Cytotoxicity of AKR1Bs substrate” value (HepG2 cells; [8]) was “dose-dependently and preferentially kill; also recorded: dose dependently and preferentially kill; also recorded: most efficient”, the Tumor volume (HepG2 tumor xenograft) was “significantly reduced” and the Tumor weight (HepG2 tumor xenograft) was “significantly reduced”. For the same compound, the “AKR1B1 activity, amount of NADPH (nmol) oxidized per min per mg of protein” value (“AKR1B1 activity, amount … per mg of protein” below) (AKR1B1 [1]) was 1681 nmol/min/mg, the “AKR1B10 activity, amount of NADPH (nmol) oxidized per min per mg of protein” value (“AKR1B10 activity, amount … per mg of protein” for short) (AKR1B10 [2]) was 1853 nmol/min/mg and the “Efficiency as substrate of AKR1B10 (rate of NADPH depletion)” value (AKR1B10 [3]) was “excellent substrate”. For the same compound, the LD50 ([4]; ICR mice, intravenous injection daily for 14 days) was “greater than 2000 mg/kg BW”, the “Death Rate” value ([4]; mouse, in vivo, iv, 1000 mg/kg) was 0% and the “Death Rate” value ([4]; mouse, in vivo, iv, 2000 mg/kg) was 0%. The LD50 ([4]; mouse, in vivo, iv) was >2000 mg/kg BW, the “Cytotoxicity of AKR1Bs substrate” value (HT29 cells; [8]) was “more resistant” and the “Cytotoxicity of AKR1Bs substrate” value (SW480 cells; [8]) was “more resistant”. For the same compound, the “Efficiency as substrate of AKR1B1 (rate of NADPH depletion)” value (AKR1B1 [5]) was “excellent substrate” and the “Efficiency as substrate of AKR1B1 (rate of NADPH depletion)” value (AKR1B1 [5]; listed as glyceraldehyde) was “best substrate”.
For `CCCCS(=N)(=O)CCC(N)C(=O)O` [BSO, L-buthionine-[S,R]-sulfoximine], the “Effect on toxicity of glyceraldehyde and diacetyl” value (shortened to “Effect on toxicity”) (SKOV3 cells; [9]) was “more HepG2 and SKOV3 cells were killed; also recorded: enhanced the toxicity”, the “Effect on toxicity” value (CaCo2 cells; [10]) was “enhanced the toxicity” and the “Effect on toxicity” value (HCT116 cells; [10]) was “enhanced the toxicity”. The “Effect on toxicity” value (HepG2 cells; [9]) was “more HepG2 and SKOV3 cells were killed; also recorded: enhanced the toxicity”.
In the case of `CC(C)C[C@H](NC(=O)[C@H](Cc1ccccc1)NC(=O)c1cnccn1)B(O)O` [Bortezomib], the “Sensitivity to 2DG after pretreatment” value (HT29 cells; [11]) is reported as “significantly more cells were killed by 2DG”, the “Sensitivity to 2DG after pretreatment” value (SW480 cells; [11]) is reported as “significantly more cells were killed by 2DG” and the “AKR1B10 protein level (western blot)” value (AKR1B10 [6]; HT29 cells) is reported as “increased”. For the same compound, the “AKR1B10 protein level (western blot)” value (AKR1B10 [6]; SW480 cells) was “induced only AKR1B1”, the “AKR1B1 protein level (western blot)” value (AKR1B1 [7]; HT29 cells) was “increased” and the “AKR1B1 protein level (western blot)” value (AKR1B1 [7]; SW480 cells) was “induced”.
For `O=C[C@H](O)[C@@H](O)[C@@H](O)[C@H](O)CO` [D-Galactose], the “AKR1B1 activity, amount … per mg of protein” value (AKR1B1 [1]) is listed as 193 nmol/min/mg and the “AKR1B10 activity, amount … per mg of protein” value (AKR1B10 [2]) is listed as 65 nmol/min/mg.
In the case of `O=C[C@H](O)[C@@H](O)[C@H](O)[C@H](O)CO` [D-Glucose], the “AKR1B1 activity, amount … per mg of protein” value (AKR1B1 [1]) is listed as 129 nmol/min/mg and the “AKR1B10 activity, amount … per mg of protein” value (AKR1B10 [2]) is listed as 65 nmol/min/mg.
